Literature values, collected in PubChem BioAssay AID1259409 (Chemical Carcinogenesis Research Information System (CCRIS), 2018).
Several values for one entry are separate records, joined by “and”; a condition that tells them apart may be missing. Identical values can stand only once.

Tested on: rodent chemically induced tumor inhibition, incidence and multiplicity
Assay: CCRIS tumor inhibitor studies
Conditions: Promoter: NONE USED

## CCOc1ccc2c(c1)C(C)=CC(C)(C)N2
Carcinogen: 1,2-DIMETHYLHYDRAZINE, 540-73-8, Dose [Inhibitor]: 0, 0.8% IN DIET BEGINNING 1 WK POST LAST CARCINOGEN DOSE AND CONTINUING FOR 36 WK (STUDY DURATION: 40 WK), Route [Inhibitor]: ORAL, Species: RAT, Strain/Sex: F344/MALE, Target Tissue: Type of Lesion: COLON: ADENOMA, Dose [Carcinogen]: 20 MG/KG 1/WK FOR 4 WK
  tumour outcome (control, treated, inhibition, significance): 1/20 (5%), 4/18 (22%), -340%, not calculated
Carcinogen: 1,2-DIMETHYLHYDRAZINE, 540-73-8, Dose [Inhibitor]: 0, 0.8% IN DIET BEGINNING 1 WK POST LAST CARCINOGEN DOSE AND CONTINUING FOR 36 WK (STUDY DURATION: 40 WK), Route [Inhibitor]: ORAL, Species: RAT, Strain/Sex: F344/MALE, Target Tissue: Type of Lesion: COLON: CARCINOMA, Dose [Carcinogen]: 20 MG/KG 1/WK FOR 4 WK
  tumour outcome (control, treated, inhibition, significance): 6/20 (30%), 7/18 (39%), -30%, not calculated
Carcinogen: 7,12-DIMETHYLBENZ[A]ANTHRACENE, 57-97-6, Dose [Inhibitor]: 200 MG IN 1 ML OLIVE OIL ONCE (STUDY DURATION: 18 WK), Route [Inhibitor]: GAVAGE, Species: RAT, Strain/Sex: SPRAGUE-DAWLEY/FEMALE, Target Tissue: Type of Lesion: MAMMARY GLAND: TUMOR, Dose [Carcinogen]: 12 MG IN 1 ML OLIVE OIL ADMINISTERED 1 HR AFTER INHIBITOR
  tumour outcome (control, treated, inhibition, significance): 27/34 (79%), 2/17 (12%), 85%, p<0.01
Carcinogen: CIPROFIBRATE, 52214-84-3, Dose [Inhibitor]: 0.5% IN DIET FOR 60 WK (STUDY DURATION: 60 WK), Route [Inhibitor]: ORAL, Species: RAT, Strain/Sex: F344/MALE, Target Tissue: Type of Lesion: LIVER: TUMOR, Dose [Carcinogen]: 10 MG/KG BODY WEIGHT IN DIET SIMULTANEOUSLY WITH INHIBITOR FOR 60 WK
  tumour outcome (control, treated, inhibition, significance): 21/25 (84%), 7/24 (29%), 65%, p<0.005 and 22/25 (88%), 4/24 (17%), 81%, p<0.005
Carcinogen: N-BIS(2-HYDROXYPROPYL)NITROSAMINE, 53609-64-6, Dose [Inhibitor]: 0, 0.8% IN DIET FOR 30 WK BEGINNING POST CARCINOGEN TREATMENT (STUDY DURATION: 32 WK0, Route [Inhibitor]: ORAL, Species: RAT, Strain/Sex: F344/MALE, Target Tissue: Type of Lesion: THYROID: ADENOMA, Dose [Carcinogen]: 0.1% IN DRINKING WATER FOR 2 WK
  tumour outcome (control, treated, inhibition, significance): 1/20 (5%), 19/20 (95%), -1800%, p<0.001
Carcinogen: N-BIS(2-HYDROXYPROPYL)NITROSAMINE, 53609-64-6, Dose [Inhibitor]: 0, 0.8% IN DIET FOR 30 WK BEGINNING POST CARCINOGEN TREATMENT (STUDY DURATION: 32 WK), Route [Inhibitor]: ORAL, Species: RAT, Strain/Sex: F344/MALE, Target Tissue: Type of Lesion: BLADDER: ADENOMA, Dose [Carcinogen]: 0.1% IN DRINKING WATER FOR 2 WK
  tumour outcome (control, treated, inhibition, significance): 5%, 5%, 0%, not significant
Carcinogen: N-BIS(2-HYDROXYPROPYL)NITROSAMINE, 53609-64-6, Dose [Inhibitor]: 0, 0.8% IN DIET FOR 30 WK BEGINNING POST CARCINOGEN TREATMENT (STUDY DURATION: 32 WK), Route [Inhibitor]: ORAL, Species: RAT, Strain/Sex: F344/MALE, Target Tissue: Type of Lesion: KIDNEY: TUMOR, Dose [Carcinogen]: 0.1% IN DRINKING WATER FOR 2 WK
  tumour outcome (control, treated, inhibition, significance): 10%, 30%, -200%, not calculated
Carcinogen: N-BIS(2-HYDROXYPROPYL)NITROSAMINE, 53609-64-6, Dose [Inhibitor]: 0, 0.8% IN DIET FOR 30 WK BEGINNING POST CARCINOGEN TREATMENT (STUDY DURATION: 32 WK), Route [Inhibitor]: ORAL, Species: RAT, Strain/Sex: F344/MALE, Target Tissue: Type of Lesion: LUNG: ADENOMA, Dose [Carcinogen]: 0.1% IN DRINKING WATER FOR 2 WK
  tumour outcome (control, treated, inhibition, significance): 100%, 95%, 5%, not calculated
Carcinogen: N-BIS(2-HYDROXYPROPYL)NITROSAMINE, 53609-64-6, Dose [Inhibitor]: 0, 0.8% IN DIET FOR 30 WK BEGINNING POST CARCINOGEN TREATMENT (STUDY DURATION: 32 WK), Route [Inhibitor]: ORAL, Species: RAT, Strain/Sex: F344/MALE, Target Tissue: Type of Lesion: LUNG: CARCINOMA, Dose [Carcinogen]: 0.1% IN DRINKING WATER FOR 2 WK
  tumour outcome (control, treated, inhibition, significance): 45%, 15%, 67%, p<0.05
Carcinogen: N-BIS(2-HYDROXYPROPYL)NITROSAMINE, 53609-64-6, Dose [Inhibitor]: 0, 0.8% IN DIET FOR 30 WK BEGINNING POST CARCINOGEN TREATMENT (STUDY DURATION: 32 WK), Route [Inhibitor]: ORAL, Species: RAT, Strain/Sex: F344/MALE, Target Tissue: Type of Lesion: THYROID: ADENOMA, Dose [Carcinogen]: 0.1% IN DRINKING WATER FOR 2 WK
  tumour outcome (control, treated, inhibition, significance): 5%, 95%, -1800%, p<0.001
Carcinogen: N-BIS(2-HYDROXYPROPYL)NITROSAMINE, 53609-64-6, Dose [Inhibitor]: 0, 0.8% IN DIET FOR 30 WK BEGINNING POST CARCINOGEN TREATMENT (STUDY DURATION: 32 WK), Route [Inhibitor]: ORAL, Species: RAT, Strain/Sex: F344/MALE, Target Tissue: Type of Lesion: THYROID: CARCINOMA, Dose [Carcinogen]: 0.1% IN DRINKING WATER FOR 2 WK
  tumour outcome (control, treated, inhibition, significance): 20%, 50%, -150%, not calculated
Carcinogen: N-ETHYL-N-HYDROXYETHYLNITROSAMINE, 13147-25-6, Dose [Inhibitor]: 0.8% IN DIET BEGINNING 1 WK AFTER LAST CARCINOGEN TREATMENT AND CONTINUING THROUGH DURATION OF STUDY (STUDY DURATION: 32, Route [Inhibitor]: ORAL, Species: RAT, Strain/Sex: F344/MALE, Target Tissue: Type of Lesion: KIDNEY: ADENOCARCINOMA, Dose [Carcinogen]: 0.1% IN DRINKING WATER FOR 2 WK AT BEGINNING OF STUDY
  outcome: 0/23 (0%), 3/27 (11%), -11%, not significant
Carcinogen: N-ETHYL-N-HYDROXYETHYLNITROSAMINE, 13147-25-6, Dose [Inhibitor]: 0.8% IN DIET BEGINNING 1 WK AFTER LAST CARCINOGEN TREATMENT AND CONTINUING THROUGH DURATION OF STUDY (STUDY DURATION: 32, Route [Inhibitor]: ORAL, Species: RAT, Strain/Sex: F344/MALE, Target Tissue: Type of Lesion: KIDNEY: ADENOMA, Dose [Carcinogen]: 0.1% IN DRINKING WATER FOR 2 WK AT BEGINNING OF STUDY
  tumour outcome (control, treated, inhibition, significance): 5/23 (22%), 17/27 (63%), -186%, p<0.001
Carcinogen: N-ETHYL-N-HYDROXYETHYLNITROSAMINE, 13147-25-6, Dose [Inhibitor]: 0.8% IN DIET BEGINNING 1 WK AFTER LAST CARCINOGEN TREATMENT AND CONTINUING THROUGH DURATION OF STUDY (STUDY DURATION: 32, Route [Inhibitor]: ORAL, Species: RAT, Strain/Sex: F344/MALE, Target Tissue: Type of Lesion: LIVER: HEPATOCELLULAR CARCINOMA, Dose [Carcinogen]: 0.1% IN DRINKING WATER FOR 2 WK AT BEGINNING OF STUDY
  tumour outcome (control, treated, inhibition, significance): 11/23 (48%), 3/27 (11%), 77%, p<0.05
Carcinogen: URETHANE, 51-79-6, Dose [Inhibitor]: 0.75% IN DIET 1/WK FOR 24 HR AFTER OVERNIGHT FAST TREATMENT REPEATED FOR 8 CONSECUTIVE WK BEGINNING 1 D AFTER CARCINOGEN, Route [Inhibitor]: ORAL, Species: MOUSE, Strain/Sex: STRAIN A/MALE, Target Tissue: Type of Lesion: LUNG: TYPE II ALVEOLAR CELL TUMORS, CLARA CELL TUMORS, Dose [Carcinogen]: 500 MG/KG ONCE AT 8 WK OF AGE
  tumour outcome (control, treated, inhibition, significance): 100%, 100%, 0%, not significant
Dose [Inhibitor]: 0.05% DIET FOR 2 WK STARTING 2 WK PRIOR TO START OF CARCINOGEN TREATMENT (STUDY DURATION: 48 WK), Route [Inhibitor]: ORAL, Species: RAT, Strain/Sex: F344/MALE, Target Tissue: Type of Lesion: LIVER: CELL TUMOR, Dose [Carcinogen]: 4 PPM IN DIET DAILY FOR 6 WK
  tumour outcome (control, treated, inhibition, significance): 3/11 (27%), 1/15 (7%), 74%, not calculated
Dose [Inhibitor]: 0.05% IN DIET FOR 2 WK STARTING 2 WK PRIOR TO INITIATION OF CARCINOGEN TREATMENT (STUDY DURATION: 48 WK), Route [Inhibitor]: ORAL, Species: RAT, Strain/Sex: F344/MALE, Target Tissue: Type of Lesion: LIVER: LIVER CELL TUMOR, Dose [Carcinogen]: 4 PPM IN DIET FOR 6 WK FOLLOWED BY 40 WK ON CONTROL DIET
  tumour outcome (control, treated, inhibition, significance): 3/11 (27%), 1/12 (8%), 70%, not calculated
Dose [Inhibitor]: 0.5% DIET FOR 2 WK STARTING 2 WK PRIOR TO START OF CARCINOGEN TREATMENT (STUDY DURATION: 48 WK), Route [Inhibitor]: ORAL, Species: RAT, Strain/Sex: F344/MALE, Target Tissue: Type of Lesion: LIVER: CELL TUMOR, Dose [Carcinogen]: 4 PPM IN DIET DAILY FOR 6 WK
  tumour outcome (control, treated, inhibition, significance): 3/11 (27%), 0/15 (0%), 100%, not calculated
Dose [Inhibitor]: 0.5% DIET FOR 2 WK STARTING POST CARCINOGEN TREATMENT AND FOLLOWED BY 40 WK ON CONTROL DIET (STUDY DURATION: 48 WK), Route [Inhibitor]: ORAL, Species: RAT, Strain/Sex: F344/MALE, Target Tissue: Type of Lesion: LIVER: CELL TUMOR, Dose [Carcinogen]: 4 PPM DIET DAILY FOR 6 WK
  tumour outcome (control, treated, inhibition, significance): 3/11 (27%), 3/15 (20%), 26%, not significant
Dose [Inhibitor]: 0.5% DIET FOR 6 WK ADMINISTERED CONCURRENTLY WITH CARCINOGEN TREATMENT FOLLOWED BY 42 WK ON CONTROL DIET (STUDY DURATION, Route [Inhibitor]: ORAL, Species: RAT, Strain/Sex: F344/MALE, Target Tissue: Type of Lesion: LIVER: CELL TUMOR, Dose [Carcinogen]: 4 PPM DIET DAILY FOR 6 WK
  tumour outcome (control, treated, inhibition, significance): 3/11 (27%), 0/15 (0%), 100%, not calculated
Dose [Inhibitor]: 0.5% IN DIET FOR 2 WK STARTING 2 WK PRIOR TO INITIATION OF CARCINOGEN (STUDY DURATION: 48 WK), Route [Inhibitor]: ORAL, Species: RAT, Strain/Sex: F344/MALE, Target Tissue: Type of Lesion: LIVER: LIVER CELL TUMOR, Dose [Carcinogen]: 4 PPM IN DIET FOR 6 WK FOLLOWED BY 40 WK ON CONTROL DIET
  tumour outcome (control, treated, inhibition, significance): 3/11 (27%), 0/15 (0%), 100%, not calculated
Dose [Inhibitor]: 0.5% IN DIET FOR 6 WK ADMINISTERED SIMULTANEOUSLY WITH CARCINOGEN FOLLOWED BY 42 WK ON CONTROL DIET (STUDY DURATION: 48, Route [Inhibitor]: ORAL, Species: RAT, Strain/Sex: F344/MALE, Target Tissue: Type of Lesion: LIVER: LIVER CELL TUMOR, Dose [Carcinogen]: 4 PPM IN DIET FOR 6 WK
  tumour outcome (control, treated, inhibition, significance): 3/11 (20%), 0/9 (0%), 100%, not calculated
